logD data for 33 molecules are collected here from the SangsterLogP compilation.

A short description of one data set: method code SF, from DOI: 10.1016/j.ejps.2012.10.019, PMID: 23131797. The conditions noted are these: pH 2.0.
Broadly, the logD is the decadic logarithm of the distribution of all forms, ionised or not, between an organic phase and buffer at a given pH. A high value points to higher lipophilicity. For `O=C(/C=C/c1ccc2c(c1)OCO2)Nc1ccc2c(c1)OCO2`, the pH-dependent lipophilicity (logD) worked out at 3.72.

The data set is the same for the next values; noted with them: pH 5.0.
`O=C(Nc1ccccc1C(F)(F)F)C1CCC1` returned a logD of 2.55.
`CCCCCCSC1=C(C#N)C(c2cccs2)C(C(=O)Nc2ccccc2OC)=C(C)N1` (stereo not drawn) came in with a logD of 6.28.
On to `CSc1scc(-c2cccs2)c1C#N`, for which the logD was found to be 3.69.
Take `COc1ccc(CCNC(=O)CSc2nc3c(c(=O)n(C)c(=O)n3C)n2Cc2ccccc2F)cc1OC`: the logD worked out at 4.
`CN(Cc1ccccc1)S(=O)(=O)c1ccc(NC(=O)Cc2ccc(F)cc2)cc1` came in with a logD of 5.14.
Still for that read-out and setting: next, `COCc1cc(OC(=O)N(C)C)nc(SCC(=O)C(C)(C)C)n1`: 3.33; `CCC(CC)NC(=O)c1ccc(Cl)c(S(=O)(=O)N2CCCC2)c1`: 3.6; `Cc1cccc(C(=O)Nc2ccc(NC(=O)c3ccccc3)c(C)c2)c1`: 4.14.
Turning to `COc1ccc(C(=O)OCC(=O)NC2CCCCCCC2)cc1[N+](=O)[O-]`, the logD came out at 4.28.
`CCn1cc(CN(C)C(=O)c2cc3cc(Br)ccc3oc2=O)c(C)n1` had a logD of 3.27.
Molecule `C#CCOc1c(I)cc(C=C2C(=O)N(C)C(=S)N(C)C2=O)cc1OCC` registered a logD of 3.72.
For the molecule `CCc1cc(=O)oc2c(C)c(OCC(=O)OC(C)(C)C)ccc12`, the logD was determined as 4.52.
Still for that read-out and setting: with `CCCC(=O)OCC(=O)Nc1ccc(F)cc1Cl` the figure was 3.02; with `N#CCc1nc(-c2ccc3c(c2)OCCCO3)cs1`, 2.68; with `CN(C(=O)c1c(F)c(F)c(F)c(F)c1F)C(C)(C)C`, 3.45.
On the same count and under the same terms, next, `COc1cc(C(=O)Nc2ccccc2C(C)(C)C)cc(OC)c1OC`: 3.61; `COc1ccc(N2C3=C(C(=O)CC(C)(C)C3)C(c3ccc4c(c3)OCO4)C3=C2CC(C)(C)CC3=O)cc1`: 5.72.
Same read-out and setting: with `O=C(CSc1nnc(-c2cccs2)o1)NCCN1C(=O)CSC1=O` the figure was 2.31.

The same data set, now with this note: pH 6.5.
In turn, `COc1cc(C=O)ccc1OS(=O)(=O)c1ccc(F)c(F)c1` came in with a logD of 3.68.
Take `CC1CCC2(CC1)N=C(c1ccccc1)C(=O)N2CC(=O)Nc1ccc2c(c1)OCCO2` (stereo not drawn): the logD stood at 5.07.
Take `CC(C)(C)c1cc(C(F)(F)F)nc(SCCNC(=O)C2CCCCC2)n1`: the log distribution coefficient (logD) was 5.77.
Molecule `COc1ccccc1N1C(=O)c2ccc(C(=O)Nc3ccc(-c4nnc(-c5ccccc5)o4)cc3)cc2C1=O` had a logD of 6.17.
As for `C=CCNC(=O)CSc1nc(C(F)F)cc(-c2cn(C)nc2C)c1C#N`, the logD was determined as 3.74.

Still in this data set, the particulars now being: pH 7.3.
Molecule `CC(C)CCn1c(NCCO)nc2c1c(=O)n(C)c(=O)n2C` displayed a logD of 2.93.
`O=C(Nc1cc2c(n(CCNc3ncc(C(F)(F)F)cc3Cl)c1=O)CCCC2=O)c1ccc(Cl)cc1` returned a logD of 5.83.
As for `C=C(c1ccc(N(C)C)cc1)c1ccc(N(C)C)cc1`, the logD was determined as 5.3.

Still in this data set, the particulars now being: pH 8.0.
For the molecule `CSc1ncccc1C(=O)OCC(=O)Nc1c(C)n(C)n(-c2ccccc2)c1=O`, the logD stood at 3.63.

Still in this data set, the particulars now being: pH 10.5.
`COc1ccc(S(=O)(=O)N2CCCCCC2)cc1C(=O)OCC(=O)c1c(N)n(C)c(=O)n(C)c1=O` returned a log distribution coefficient (logD) of 4.59.
`Cc1ccccc1N1C(=O)c2ccc(C(=O)OCC(=O)c3c(N)n(C)c(=O)n(C)c3=O)cc2C1=O` came in with a pH-dependent lipophilicity (logD) of 4.55.
Take `Cc1ccc(S(=O)(=O)N(C)c2ccc(OCC(=O)N3CCN(c4ncccn4)CC3)cc2)cc1`: the logD amounted to 4.46.
In turn, `C=CCNC(=O)CSc1nnc(CCn2nc(C)c(Br)c2C)n1CC` displayed a logD of 3.53.
Molecule `CC1=NN(c2ccccc2)C(=O)C1Sc1nc(N)c(C#N)c(-c2ccc(C)cc2)c1C#N` (stereo not drawn) registered a logD of 4.99.
